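Dose response: 5 concentrations. Exposure: 48 h. Format: 96-well plates. Endpoint: linear interpolation; highest concentration if not reached. GI50: concentration for 50% inhibition of growth.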 Activity calls are given as the source filed them. No stated cut-off is given here; in the data, active = GI50 up to about 1.1 µM and inactive = higher.

Results on ten molecules are retold here after ChEMBL document CHEMBL1201862, “PubChem BioAssay data set” (2004).

Test systems include CAKI-1; ACHN; A549; M14; SF-268; OVCAR-8; 786-0; HCC 2998; HCT-116; HL-60; IGROV-1; NCI/ADR-RES; OVCAR-4; UACC-62; RXF 393; HCT-15; MDA-MB-231; SK-OV-3; SK-MEL-5; K562.
What all share (experiment): NCI-60 cell line screen, 48 h

Regarding `Oc1cc(-c2cccc(OC(F)(F)F)c2)nc2cc3c(cc12)OCO3`, the GI50 is 0.0885 µM (active) in the assay on CAKI-1; > 32.7 µM (inactive) in the assay on ACHN; 0.182 µM (active) in the assay with A549; 0.0867 µM (active) with M14; 2.72 µM (inactive) with SF-268; 0.155 µM (active) in the assay with OVCAR-8. Also, the GI50 was 0.0902 µM (active) in the assay with 786-0; 0.0631 µM (active) in the assay on HCC 2998; 0.0395 µM (active) with HCT-116; 0.0131 µM (active) in the assay on HL-60; 0.355 µM (active) in the assay with IGROV-1; 0.0334 µM (active) in the assay with NCI/ADR-RES. Besides, the GI50 in the assay with OVCAR-4 is 1.19 µM (inactive); with UACC-62 it was 0.123 µM (active); in the assay with RXF 393 it was 0.166 µM (active); in the assay on HCT-15 it was 0.0475 µM; in the assay on MDA-MB-231, 0.144 µM (active); in the assay with SK-OV-3 it was 0.282 µM (active). Also, the GI50 was 0.0508 µM (active) in the assay with SK-MEL-5 and 0.0275 µM (active) with K562.

Turning to `CC(=O)c1ccc2c(c1)CC1(C2)Cc2cc3c(cc2C1)C(=O)CC3` (stereo not given), the GI50 in the assay on CAKI-1 is 2.03 µM (inactive); with ACHN, 3.07 µM (inactive); with A549 it was 0.792 µM (active); in the assay on M14 it was 2 µM (inactive); in the assay on SF-268, 3.15 µM (inactive); in the assay with OVCAR-8, 3.49 µM (inactive). The GI50 is 3.64 µM (inactive) with 786-0; 0.91 µM (active) with HCC 2998; 2.1 µM (inactive) in the assay on HCT-116; 0.76 µM (active) in the assay with HL-60; 2.67 µM (inactive) with IGROV-1; 1.57 µM (inactive) in the assay with NCI/ADR-RES. Moreover, the GI50 is 2.55 µM (inactive) with OVCAR-4; 3.29 µM (inactive) in the assay with UACC-62; 2.28 µM (inactive) in the assay with RXF 393; 1.08 µM with HCT-15; 2.51 µM (inactive) in the assay with MDA-MB-231; 0.723 µM (active) in the assay with SK-OV-3. Moreover, the GI50 with SK-MEL-5 is 0.608 µM (active); with K562 it was 0.521 µM (active).

As to `CNC(=S)N/N=C/c1ccc([N+](=O)[O-])s1`, the GI50 was > 10 µM (inactive) in the assay with CAKI-1; > 10 µM (inactive) in the assay with ACHN; 7.38 µM (inactive) in the assay on A549; > 10 µM (inactive) with M14; > 10 µM (inactive) in the assay with SF-268; 7.26 µM (inactive) in the assay on OVCAR-8. In addition, the GI50 was > 10 µM (inactive) with 786-0; 8.15 µM (inactive) in the assay on HCC 2998; 5.48 µM (inactive) in the assay on HCT-116; 6.44 µM (inactive) in the assay with HL-60; > 10 µM (inactive) in the assay with IGROV-1; > 10 µM (inactive) with NCI/ADR-RES. The GI50 is > 10 µM (inactive) with OVCAR-4; > 10 µM (inactive) in the assay with UACC-62; > 10 µM (inactive) in the assay on RXF 393; greater than 10 µM in the assay on HCT-15; > 10 µM (inactive) in the assay on MDA-MB-231; > 10 µM (inactive) in the assay on SK-OV-3. The GI50 with SK-MEL-5 and in the assay with K562 was > 10 µM (inactive) in each case.

Turning to `CCOC(=O)/C(C(=O)c1ccc[nH]1)=C1/CCCN1C`, the GI50 in the assay with CAKI-1, in the assay on ACHN, in the assay on A549, with M14, in the assay with SF-268 and in the assay with OVCAR-8 was > 100 µM (inactive) in each case. Also, the GI50 in the assay on 786-0, in the assay on HCC 2998, with HCT-116, with HL-60, with IGROV-1 and in the assay with NCI/ADR-RES was > 100 µM (inactive) each time. In addition, the GI50 with OVCAR-4 was > 100 µM (inactive); with UACC-62 it was > 100 µM (inactive); in the assay with RXF 393, > 100 µM (inactive); in the assay with HCT-15 it was greater than 100 µM; in the assay with MDA-MB-231, > 100 µM (inactive); with SK-OV-3, > 100 µM (inactive). Also, the GI50 in the assay with SK-MEL-5 and in the assay on K562 was > 100 µM (inactive) each time.

For the molecule `CCCCCCCCCC[C@@H](O)[C@H]1CC[C@H]([C@H]2CC[C@H]([C@H](O)CCCCCCCCCC[C@@H]3CC(CC(C)=O)C(=O)O3)O2)O1` (stereo not given in full), the GI50 with CAKI-1 was > 47.1 µM (inactive); with ACHN it was > 28.5 µM (inactive); in the assay on A549 it was 9.93 µM (inactive); with M14, 26.3 µM (inactive); with SF-268 it was > 50 µM (inactive); with OVCAR-8, 7.66 µM (inactive). Moreover, the GI50 in the assay on 786-0 is 23.2 µM (inactive); in the assay on HCC 2998, 41.3 µM (inactive); with HCT-116, 0.112 µM (active); with HL-60, 5.61 µM (inactive); with IGROV-1 it was > 34.4 µM (inactive); in the assay with NCI/ADR-RES, 4.69 µM (inactive). Also, the GI50 with OVCAR-4 is 28.7 µM (inactive); in the assay on UACC-62, 1.11 µM (active); in the assay with RXF 393, 20.7 µM (inactive); in the assay on HCT-15 it was 28.3 µM; in the assay on MDA-MB-231 it was > 50 µM (inactive); in the assay with SK-OV-3 it was 31.8 µM (inactive). The GI50 was 0.0929 µM (active) in the assay on SK-MEL-5 and 0.374 µM (active) with K562.

Take `COc1cc2oc3cc(=O)cc4oc(-c5ccccc5)cc(c2c2c1CCC(c1ccccc1)O2)c43` (stereo not given): the GI50 in the assay with CAKI-1 is 15.7 µM (inactive); in the assay with ACHN, 19.3 µM (inactive); in the assay on A549 it was 72.8 µM (inactive); in the assay on M14, 17.4 µM (inactive); in the assay with SF-268, > 100 µM (inactive); with OVCAR-8, 50 µM (inactive). Also, the GI50 in the assay with 786-0 was 48.2 µM (inactive); in the assay on HCC 2998, 34.2 µM (inactive); in the assay on HCT-116, 29.2 µM (inactive); in the assay with HL-60, 25 µM (inactive); with IGROV-1, 33.1 µM (inactive); in the assay on NCI/ADR-RES, > 100 µM (inactive). Also, the GI50 in the assay with OVCAR-4 is > 100 µM (inactive); in the assay on UACC-62, 35.1 µM (inactive); in the assay with RXF 393, 54.7 µM (inactive); in the assay with HCT-15, 20.4 µM; with MDA-MB-231, 22.3 µM (inactive); in the assay on SK-OV-3 it was 35 µM (inactive). The GI50 in the assay on SK-MEL-5 was 20.4 µM (inactive); in the assay with K562 it was 33 µM (inactive).

For `CC[C@]1(Cc2ccc(OC)c(OC)c2)C=[N+]([O-])O[C@H](OC2CCCC2(c2ccccc2)c2ccccc2)[C@@H]1OC(=O)c1ccccc1` (stereo not given in full), the GI50 is > 100 µM (inactive) with CAKI-1; 7.83 µM (inactive) in the assay on ACHN; 5.92 µM (inactive) in the assay on A549; 8.13 µM (inactive) with M14; 28.7 µM (inactive) with SF-268; 3.71 µM (inactive) with OVCAR-8. The GI50 in the assay with 786-0 was 6.75 µM (inactive); in the assay on HCC 2998 it was 9.71 µM (inactive); in the assay on HCT-116 it was 4.51 µM (inactive); in the assay on HL-60 it was 3.21 µM (inactive); in the assay with IGROV-1 it was 3.67 µM (inactive); in the assay on NCI/ADR-RES, 4.73 µM (inactive). For the same molecule, the GI50 with OVCAR-4 was 7.38 µM (inactive); in the assay with UACC-62 it was 8.67 µM (inactive); in the assay on RXF 393, 4.35 µM (inactive); in the assay with HCT-15, 11.7 µM; in the assay on MDA-MB-231 it was > 24.9 µM (inactive); in the assay on SK-OV-3, > 47.9 µM (inactive). In addition, the GI50 in the assay with SK-MEL-5 is 4.37 µM (inactive); with K562, 3.94 µM (inactive).

As to `CCC(C#N)NC(=O)NC(C#N)CC` (stereo not given), the GI50 in the assay with CAKI-1 is > 100 µM (inactive); with ACHN it was > 100 µM (inactive); with A549 it was 77.3 µM (inactive); in the assay with M14, > 100 µM (inactive); with SF-268, > 100 µM (inactive); in the assay with OVCAR-8 it was > 100 µM (inactive). Besides, the GI50 with 786-0, in the assay on HCC 2998, in the assay on HCT-116, in the assay on HL-60, with IGROV-1 and in the assay with NCI/ADR-RES was > 100 µM (inactive) each time. Moreover, the GI50 in the assay with OVCAR-4 is 33.6 µM (inactive); in the assay with UACC-62, > 100 µM (inactive); with RXF 393 it was > 100 µM (inactive); with HCT-15 it was greater than 100 µM; in the assay on MDA-MB-231, > 100 µM (inactive); with SK-OV-3 it was > 100 µM (inactive). For the same molecule, the GI50 in the assay on SK-MEL-5 was > 100 µM (inactive); with K562, 50.9 µM (inactive).

On to `Cc1cc(/N=C/c2ccc(C#N)cc2)n(-c2ccccc2)n1`, for which the GI50 in the assay on CAKI-1 is > 100 µM (inactive); in the assay with ACHN, > 100 µM (inactive); with A549 it was 64.9 µM (inactive); in the assay on M14, 55.7 µM (inactive); with SF-268, 48.5 µM (inactive); in the assay on OVCAR-8 it was 69 µM (inactive). Also, the GI50 in the assay on 786-0 was 80.5 µM (inactive); in the assay with HCC 2998, > 100 µM (inactive); with HCT-116, 49.1 µM (inactive); with HL-60, 20.1 µM (inactive); in the assay on IGROV-1, 68.9 µM (inactive); in the assay with NCI/ADR-RES, 65.8 µM (inactive). For the same molecule, the GI50 with OVCAR-4 is > 100 µM (inactive); with UACC-62, 80.4 µM (inactive); with RXF 393 it was > 100 µM (inactive); in the assay with HCT-15, 50.8 µM; in the assay on MDA-MB-231, > 100 µM (inactive); in the assay on SK-OV-3 it was 51.3 µM (inactive). For the same molecule, the GI50 was 36 µM (inactive) in the assay on SK-MEL-5 and 26.5 µM (inactive) in the assay on K562.

Turning to `Nc1[nH]c(Nc2ccc(Cl)c(Cl)c2)nc2ncnc1-2`, the GI50 in the assay on CAKI-1 is 10.8 µM (inactive); in the assay with ACHN it was 9.89 µM (inactive); in the assay on A549 it was 13.9 µM (inactive); in the assay with M14, 16 µM (inactive); in the assay on SF-268, 11 µM (inactive); in the assay with OVCAR-8, 14.7 µM (inactive). For the same molecule, the GI50 is 15.7 µM (inactive) in the assay with 786-0; 14.4 µM (inactive) in the assay with HCC 2998; 15.1 µM (inactive) in the assay with HCT-116; 6.67 µM (inactive) in the assay with HL-60; 4.76 µM (inactive) in the assay with IGROV-1; 15.9 µM (inactive) with NCI/ADR-RES. Also, the GI50 is 20.3 µM (inactive) in the assay with OVCAR-4; 11.9 µM (inactive) in the assay with UACC-62; 4.78 µM (inactive) with RXF 393; 15.3 µM with HCT-15; 14 µM (inactive) with MDA-MB-231; 15.3 µM (inactive) with SK-OV-3. Further, the GI50 with SK-MEL-5 is 14.6 µM (inactive); in the assay on K562 it was 16.1 µM (inactive).
